Results from US8962576B2, “Compositions and method for improving endothelial function and cardiovascular health” (Natreon, Inc., priority 2012, dated 2015).

Assays:
Type in all cases: in vivo, human
platelet aggregation = test: Inhibition of platelet aggregation using ADP as aggregant, study (c) subset (i); details: Clopidogrel 75 mg single dose Day 1, CAPROS 500 mg BD multiple dose Day 10, combination Day 11, n = 10
Method: The platelet aggregation was determined by the following procedure using Wheecon chronologue dual channel platelet aggregometer (Wheecon Instruments Pvt. Ltd., Chemai, Tamilnadu, India). The percentage decrease in platelet aggregation was recorded at baseline and 3 hours post treatment. Approximately 9 ml of blood sample was collected in a 10 ml plastic test tube containing 1 ml of 3.8% Sodium Citrate from the cubital vein of the subject at baseline and after 3 hours post treatment in all the groups. The test was performed immediately within a time period of one and half hours from collection. The samples were centrifuged at 800 rpm for 15 minutes to obtain a platelet-rich plasma. […] The readings were recorded at baseline and after treatment with ADP. The percentage aggregation at baseline and the percentage inhibition of platelet aggregation on post treatment with all the four treatments was calculated. […]
The effect of CAPROS® 500 mg BD (multiple dose study), Clopidogrel 75 mg (single dose study) and Capros 500 mg+Clopidogrel 75 mg on platelet function was determined by the following procedure using the dual channel platelet aggregometer instrument, as described above. The percentage aggregation at baseline and the percentage inhibition of platelet aggregation on post treatment with all the three treatments was calculated.

Type 2 Diabetic Subjects [1] = test: Bleeding time, Duke's Method, study (c) subset (i); details: Table XIV-A, n = 10
Method: Bleeding Time: Bleeding time in seconds was recorded at baseline and at day 10, after 4 hrs post treatment in all the treatment groups by Duke's Method. Normal Range: 60-180 Sec.

Type 2 Diabetic Subjects [2] = test: Clotting time, Capillary Tube Method, study (c) subset (i); details: Table XIV-B, n = 10
Method: Clotting Time: Clotting time in seconds was recorded at baseline and at day 10, after 4 hrs post treatment in all the treatment groups by Capillary Tube Method. Normal Range-300-480 Sec.

[3] = 4th Hr Post treatment, Clopidogrel 75 mg Day 1, CAPROS 500 mg BD Day 10, combination Day 11
[4] = Baseline, Clopidogrel 75 mg single dose, CAPROS 500 mg BD multiple dose, combination

COC(=O)[C@H](c1ccccc1Cl)N1CCc2sccc2C1 [CLOPIDOGREL, Clopidogrel]
inhibition of platelet aggregation, Mean (platelet aggregation): 47.40% | Bleeding Time, Mean (Type 2 Diabetic Subjects [1]; [3]): 97.30 s | Bleeding Time, Mean (Type 2 Diabetic Subjects [1]; [4]): 84.40 s | Bleeding Time, Mean (Type 2 Diabetic Subjects [2]; [3]): 249.5 s | Bleeding Time, Mean (Type 2 Diabetic Subjects [2]; [4]): 207.5 s
